According to patent US5459132A, “N6-[(Imidazo[1,2-a]pyridin-3-yl)ethyl]adenosines, their 5'-uronamide analogues and pharmaceutical compositions” (Laboratoires UPSA, priority 1994, dated 1995):

Experiments:
[1] = tested on: mice; assay: Phenylbenzoquinone test (analgesic activity); format: in vivo; conditions: one hour before phenylbenzoquinone injection, 5 minutes observation
Description: 2. Phenylbenzoquinone test
The intraperitoneal injection of phenylbenzoquinone causes twisting and stretching movements in mice. Analgesics prevent or reduce this syndrome, which can be considered as the exteriorization of diffuse abdominal pain.
A 0.02% solution of phenylbenzoquinone in water is administered in a volume of 1 ml/100 g.
The products of the Examples are administered orally one hour before the injection of phenylbenzoquinone.
The stretching and twisting movements are counted for each mouse over an observation period of 5 minutes.

[2] = tested on: Balbc 3T3 fibroblasts; assay: Inhibition of the cell proliferation induced by a growth factor (PDGF) in Balbc 3T3 fibroblasts, ^3H-thymidine incorporation; format: cell-based; conditions: for % inhibition of the incorporation of ^3H-thymidine stimulated by PDGF, 1E-6M: test molecule 1E-6M
Description: Measurement of the inhibition of the cell proliferation induced by a growth factor in Balbc […] 3T3 fibroblasts
Inhibition of the cell proliferation induced by a growth factor (for example PDGF) is evaluated by measuring the incorporation of ^3 H-thymidine into Balbc 3T3 fibroblasts.
The Balbc 3T3 fibroblasts are cultivated at 37° C. with 5% of CO2 up to the point of subconfluence and are then placed for 18 hours under rest conditions in a serum-impoverished medium. They are subsequently pretreated for one hour with the test molecule (10^-5 M and/or 10^-6 M) and then stimulated for 22 hours with a growth factor (for example PDGF). ^3 H-Thymidine is incorporated over the last 2 hours. All these steps are performed at 37° C. with 5% of CO2.
The reaction is terminated by sucking off the reaction medium, detaching the cells and then filtering the lyzed cells through glass fiber filters.
The results are expressed as the percentage inhibition of the stimulation of ^3 H-thymidine incorporation induced by the growth factor.

Structure (SMILES)	Phenylbenzoquinone test % inhibition at 30 mg/kg p.o. [1] [%]	% inhibition of the incorporation of ^3H-thymidine stimulated by PDGF, 1E-5M ([2]; test molecule 1E-5M) [%]	% inhibition of the incorporation of ^3H-thymidine stimulated by PDGF, 1E-6M [2] [%]
COCCOc1cccn2c(CCNc3ncnc4c3ncn4[C@@H]3O[C@H](C(=O)NC4CC4)[C@@H](O)[C@H]3O)cnc12 [Example 35, β-D-Ribofuranuronamido-N-cyclopropyl-1-deoxy-1-[6-[[2-[8-(2-methoxyethoxy)imidazo[1,2-a]pyridin-3-yl]ethyl]amino]-9H-purin-9-yl]]	25		
O=C(NC1CC1)[C@H]1O[C@@H](n2cnc3c(NCCc4cnc5c(OCc6ccccc6)cccn45)ncnc32)[C@H](O)[C@@H]1O [Example 33, β-D-Ribofuranuronamido-N-cyclopropyl-1-deoxy-1-[6-[[2-[8-(phenylmethoxy)imidazo[1,2-a]pyridin-3-yl]ethyl]amino]-9H-purin-9-yl]]	39		
O=C(NC1CC1)[C@H]1O[C@@H](n2cnc3c(NCCc4cnc5c(OC6CCCC6)cccn45)ncnc32)[C@H](O)[C@@H]1O [Example 37, β-D-Ribofuranuronamido-N-cyclopropyl-1-deoxy-1-[6-[[2-[8-(cyclopentoxy)imidazo[1,2-a]pyridin-3-yl]ethyl]amino]-9H-purin-9-yl]]	57	63	
Cc1ccc(C)c(COc2cccn3c(CCNc4ncnc5c4ncn5[C@@H]4O[C@H](C(=O)NC5CC5)[C@@H](O)[C@H]4O)cnc23)c1 [Example 34, β-D-Ribofuranuronamido-N-cyclopropyl-1-deoxy-1-[6-[[2-[[8-(2,5-dimethylphenyl)methoxy]imidazo[1,2-a]pyridin-3-yl]ethyl]amino]-9H-purin-9-yl]]	57		72
Cc1ccc(C)c(COc2cccn3c(CCNc4ncnc5c4ncn5[C@@H]4O[C@H](C(=O)NC5CC5)[C@@H](O)[C@H]4O)c(C)nc23)c1 [Example 36, β-D-Ribofuranuronamido-N-cyclopropy-1-deoxy-1-[6-[[2-[[8-(2,5-dimethylphenyl)methoxy]-2-methylimidazo[1,2-a]pyridin-3-yl]ethyl]amino]-9H-purin-9-yl]]	63		80
